Experimental data published in US20080293712A1, “Benzo[C][2,7]Naphtyridine Derivatives, Methods of Making Thereof and Methods of Use Thereof” (WYETH, priority 2007, published 2008).
Read-outs that look alike come from different tables or passages of the source.

Molecular target: T1, PDK-1 (Homo sapiens, UniProt O15530)
T1 sequence (O15530 1-556): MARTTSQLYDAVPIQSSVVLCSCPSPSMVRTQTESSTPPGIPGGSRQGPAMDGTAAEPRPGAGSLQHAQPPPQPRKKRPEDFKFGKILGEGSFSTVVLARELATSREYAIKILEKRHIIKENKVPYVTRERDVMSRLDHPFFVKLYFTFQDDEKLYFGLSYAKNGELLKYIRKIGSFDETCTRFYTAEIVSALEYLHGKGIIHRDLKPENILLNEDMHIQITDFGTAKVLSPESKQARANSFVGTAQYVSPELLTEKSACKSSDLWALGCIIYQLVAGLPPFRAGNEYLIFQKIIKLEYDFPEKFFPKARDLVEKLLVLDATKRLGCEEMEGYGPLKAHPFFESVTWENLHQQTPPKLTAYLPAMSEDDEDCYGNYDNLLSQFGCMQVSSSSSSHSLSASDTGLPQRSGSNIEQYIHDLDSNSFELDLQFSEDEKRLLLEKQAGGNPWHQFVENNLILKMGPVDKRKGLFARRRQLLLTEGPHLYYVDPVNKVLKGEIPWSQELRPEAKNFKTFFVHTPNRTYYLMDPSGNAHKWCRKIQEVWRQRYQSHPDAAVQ
Assay: PDK-1 kinase inhibition ELISA assay (phosphorylation of His6-tagged SGK1 S422D by PDK-1)
Type: biochemical

[1] = PDK-1 ELISA, Table 11, read-out: Average IC50

SMILES | IC50 [1] | IC50
COc1cc2ncc3c(N)nc(-c4cncc(OC[C@@H](N)CSc5ccc(Cl)cc5Cl)c4)cc3c2cc1OC [Ib-163, 2-[5-({(2R)-2-amino-3-[(2,4-dichlorophenyl)thio]propyl}oxy)pyridin-3-yl]-8,9-dimethoxybenzo[c][2,7]naphthyridin-4-amine] | 12 nM | 
COc1cc2ncc3c(N)nc(-c4cncc(OC[C@@H](Cc5ccccc5)NC=O)c4)cc3c2cc1OC [Ib-16, N-((1R)-2-{[5-(4-amino-8,9-dimethoxybenzo[c]-2,7-naphthyridin-2-yl)pyridin-3-yl]oxy}-1-benzylethyl)formamide] | 38 nM | 
COc1cc2ncc3c(N)nc(-c4cncc(OC[C@@H](N)CNc5ccc(N)cc5)c4)cc3c2cc1OC [Ib-111, N-[(2S)-2-amino-3-{[5-(4-amino-8,9-dimethoxybenzo[c][2,7]naphthyridin-2-yl)pyridin-3-yl]oxy}propyl]benzene-1,4-diamine] | 81 nM | 
COc1cc2ncc3c(N)nc(-c4cncc(OC[C@@H](N)CSc5nccs5)c4)cc3c2cc1OC [Ib-166, 2-(5-{[(2R)-2-amino-3-(1,3-thiazol-2-ylthio)propyl]oxy}pyridin-3-yl)-8,9-dimethoxybenzo[c][2,7]naphthyridin-4-amine] | 3 nM | 
COc1cc2ncc3c(N)nc(-c4cncc(OC[C@@H](N)Cn5ccnc5)c4)cc3c2cc1OC [Ib-9, 2-(5-{[(2S)-2-amino-3-(1H-imidazol-1-yl)propyl]oxy}pyridin-3-yl)-8,9-dimethoxybenzo[c]-2,7-naphthyridin-4-amine] | 20 nM | 
COCCNc1cc2c(cnc3cc(OCCOC)c(OC)cc32)c(N)n1 [Ia-55, 9-methoxy-8-(2-methoxyethoxy)-N^2-(2-methoxyethyl)benzo[c]-2,7-naphthyridine-2,4-diamine] |  | 7490 nM
COc1cc2ncc3c(N)nc(-c4cncc(OC[C@@H](N)CNCC(F)(F)F)c4)cc3c2cc1OC [Ib-109, (2S)-3-{[5-(4-amino-8,9-dimethoxybenzo[c][2,7]naphthyridin-2-yl)pyridin-3-yl]oxy}-N1-(2,2,2-trifluoroethyl)propane-1,2-diamine] | 14 nM | 
CCCCN(C[C@H](N)COc1cncc(-c2cc3c(cnc4cc(OC)c(OC)cc43)c(N)n2)c1)S(=O)(=O)c1ccccc1 [Ib-77, N-[(2S)-2-amino-3-{[5-(4-amino-8,9-dimethoxybenzo[c][2,7]naphthyridin-2-yl)pyridin-3-yl]oxy}propyl]-N-butylbenzenesulfonamide] | 21 nM | 
CCNCCOc1cncc(-c2cc3c(cnc4cc(OC)c(OC)cc43)c(N)n2)c1 [Ib-73, 2-(5-(2-(ethylamino)ethoxy)pyridin-3-yl)-8,9-dimethoxybenzo[c][2,7]naphthyridin-4-amine] | 46.5 nM | 

More lines, now with the values ahead:

IC50 [1] | IC50 | SMILES
 | 383 nM | COc1ccc(Nc2cncc(-c3cc4c(cnc5cc(OC)c(OC)cc54)c(N)n3)c2)cc1 [Ib-177, 8,9-dimethoxy-2-{5-[(4-methoxyphenyl)amino]pyridin-3-yl}benzo[c][2,7]naphthyridin-4-amine]
67 nM |  | COc1cc2ncc3c(N)nc(-c4cncc(Nc5cccc(CO)c5)c4)cc3c2cc1OC [Ib-195, (3-{[5-(4-amino-8,9-dimethoxybenzo[c][2,7]naphthyridin-2-yl)pyridin-3-yl]amino}phenyl)methanol]
147 nM |  | COc1cc(F)cc(-c2cc3c(cnc4cc(OC)c(OC)cc43)c(N)n2)c1 [Ib-242, 2-(3-fluoro-5-methoxyphenyl)-8,9-dimethoxybenzo[c][2,7]naphthyridin-4-amine]
74 nM |  | COc1cc2ncc3c(N)nc(-c4cncc(Nc5ccccc5N5CCOCC5)c4)cc3c2cc1OC [Ib-184b, 8,9-dimethoxy-2-{5-[(2-morpholin-4-ylphenyl)amino]pyridin-3-yl}benzo[c][2,7]naphthyridin-4-amine]
600 nM |  | COc1cc2ncc3c(N)nc(-c4cncc(Nc5ccc(C#N)cc5)c4)cc3c2cc1OC [Ib-180, 4-{[5-(4-amino-8,9-dimethoxybenzo[c][2,7]naphthyridin-2-yl)pyridin-3-yl]amino}benzonitrile]
